{"source": "patent US20240262806A1", "about": "“INHIBITORS OF NLRP3” (PTC THERAPEUTICS, INC., priority 2021, published 2024)", "data": [{"test_system": "NLRP3 inflammasome", "assay": "IL-1β Secretion Assay (NLRP3-dependent IL-1β secretion in PMA-differentiated THP-1 cells, nigericin activation, HTRF)", "type": "cell-based", "details": "Homo sapiens, THP-1, THP-1 cells, 100 ng/mL PMA 24 h, compound 20 h, 2.5 μM Nigericin 3 h; read-out: IC50 IL-1β Inhibition", "in_short": "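IL-1β release, quantified by HTRF after nigericin activation of the NLRP3 inflammasome, was the read-out. A logistic fit of percent inhibition gave IC50.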", "units": {"IC50": "nM"}, "values": [{"compound": "[2H]C([2H])([2H])Oc1ccc(-c2nnc(N[C@@H]3CCCN(C)C3)n3cccc23)c(O)c1", "note": "[Compound I-501, (R)-5-(Methoxy-d3)-2-(4-((1-methylpiperidin-3-yl)amino)pyrrolo[1,2-d][1,2,4]triazin-1-yl)phenol]", "IC50": "< 1"}, {"compound": "COc1cc(O)c(-c2nnc(N[C@@H]3C[C@@H](F)CN(C)C3)n3cccc23)c(F)c1", "note": "[Compound I-502]", "IC50": "< 1"}, {"compound": "CN1CCC[C@@H](Nc2nnc(-c3ccc(Br)cc3OC(F)(F)F)c3cccn23)C1", "note": "[Compound I-504]", "IC50": "< 1"}, {"compound": "CCN1CCC[C@@H](Nc2nnc(-c3ccc(Cl)cc3C(F)F)c3cccn23)C1", "note": "[Compound I-505]", "IC50": "10 to 100"}, {"compound": "OCCN1CCC[C@@H](Nc2nnc(-c3ccc(Cl)cc3C(F)F)c3cccn23)C1", "note": "[Compound I-506]", "IC50": "10 to 100"}, {"compound": "CN1C[C@H](F)C[C@@H](Nc2nnc(-c3ccc(C4CC4)cc3C(F)F)c3cccn23)C1", "note": "[Compound I-507]", "IC50": "10 to 100"}, {"compound": "CCN1CCC[C@@H](Nc2nnc(-c3ccc(C4CC4)cc3C(F)F)c3cccn23)C1", "note": "[Compound I-508]", "IC50": "1 to 10"}, {"compound": "OCCN1CCC[C@@H](Nc2nnc(-c3ccc(C4CC4)cc3C(F)F)c3cccn23)C1", "note": "[Compound I-509]", "IC50": "1 to 10"}, {"compound": "Oc1cc(C2CC2)cc(F)c1-c1nnc(N[C@@H]2CCCN(CC(F)F)C2)n2cccc12", "note": "[Compound I-510]", "IC50": "10 to 100"}, {"compound": "Cc1cc(O)c(-c2nnc(N[C@@H]3CCCN(CC(F)F)C3)n3cccc23)c(F)c1", "note": "[Compound I-511]", "IC50": "1 to 10"}, {"compound": "[2H]C([2H])([2H])Oc1cc(O)c(-c2nnc(N[C@@H]3CCCN(C)C3)n3cccc23)c(F)c1", "note": "[Compound I-513]", "IC50": "< 1"}, {"compound": "[2H]C([2H])([2H])Oc1cc(O)c(-c2nnc(N[C@@H]3CCCN(CC)C3)n3cccc23)c(F)c1", "note": "[Compound I-514, (R)-2-(4-((1-ethylpiperidin-3-yl)amino)pyrrolo[1,2-d][1,2,4]triazin-1-yl)-3-fluoro-5-(methoxy-d3)phenol]", "IC50": "< 1"}, {"compound": "CCN1CCC[C@@H](Nc2nnc(-c3c(O)cc(C)cc3F)c3cc(C)nn23)C1", "note": "[Compound I-515]", "IC50": "< 1"}, {"compound": "FC(F)(F)c1ccc(-c2nnc(N[C@@H]3CCCN(C4CCOCC4)C3)n3cccc23)c(C(F)(F)F)c1", "note": "[Compound I-516]", "IC50": "1 to 10"}, {"compound": "FC(F)(F)c1ccc(-c2nnc(N[C@@H]3CCCN(C4CCOC4)C3)n3cccc23)c(C(F)(F)F)c1", "note": "(some centres unmarked) [Compound I-517]", "IC50": "1 to 10"}, {"compound": "Oc1cc(Cl)ccc1-c1nnc(N[C@@H]2CCCOC2)n2cncc12", "note": "[Compound I-518, (R)-5-Chloro-2-(4-((tetrahydro-2H-pyran-3-yl)amino)imidazo[1,5-d][1,2,4]triazin-1-yl)phenol]", "IC50": "1 to 10"}, {"compound": "CN1CCC[C@@H](Nc2nnc(-c3ccc(OC(F)(F)F)cc3OC(F)F)c3cccn23)C1", "note": "[Compound I-519]", "IC50": "1 to 10"}, {"compound": "OCCN1CCC[C@@H](Nc2nnc(-c3ccc(OC(F)(F)F)cc3OC(F)F)c3cccn23)C1", "note": "[Compound I-520]", "IC50": "1 to 10"}, {"compound": "CN1C[C@H](F)C[C@@H](Nc2nnc(-c3ccc(OC(F)(F)F)cc3OC(F)F)c3cccn23)C1", "note": "[Compound I-521]", "IC50": "1 to 10"}, {"compound": "C[C@]1(O)C[C@@H](Nc2nnc(-c3ccc(OC(F)(F)F)cc3OC(F)F)c3cccn23)C1", "note": "[Compound I-522]", "IC50": "10 to 100"}, {"compound": "C[C@]1(O)C[C@@H](Nc2nnc(-c3ccc(OC(F)(F)F)cc3O)c3cccn23)C1", "note": "[Compound I-523]", "IC50": "10 to 100"}, {"compound": "O[C@H]1CCC[C@@H](Nc2nnc(-c3ccc(C(F)(F)F)cc3OC(F)F)c3c(F)ccn23)C1", "note": "[Compound I-524]", "IC50": "10 to 100"}, {"compound": "C[C@]1(O)C[C@@H](Nc2nnc(-c3ccc(C(F)(F)F)cc3OC(F)F)c3c(F)ccn23)C1", "note": "[Compound I-525]", "IC50": "10 to 100"}, {"compound": "Oc1cc(C(F)(F)F)ccc1-c1nnc(N[C@@H]2CCC[C@H](O)C2)n2ccc(F)c12", "note": "[Compound I-526]", "IC50": "10 to 100"}, {"compound": "C[C@]1(O)C[C@@H](Nc2nnc(-c3ccc(C(F)(F)F)cc3O)c3cncn23)C1", "note": "[Compound I-527]", "IC50": "1 to 10"}, {"compound": "CN1C[C@H](F)C[C@@H](Nc2nnc(-c3ccc(C(F)(F)F)cc3O)c3cncn23)C1", "note": "[Compound I-528]", "IC50": "< 1"}, {"compound": "OCCN1CCC[C@@H](Nc2nnc(-c3ccc(Br)cc3O)c3cccn23)C1", "note": "[Compound I-529]", "IC50": "1 to 10"}, {"compound": "CC(C)N1CCC[C@@H](Nc2nnc(-c3ccc(C(F)(F)F)cc3C(F)(F)F)c3cccn23)C1", "note": "[Compound I-530]", "IC50": "< 1"}, {"compound": "CC(C)(O)CNc1nnc(-c2ccc(C(F)(F)F)cc2C(F)(F)F)c2cccn12", "note": "[Compound I-531]", "IC50": "10 to 100"}, {"compound": "C[C@]1(O)C[C@@H](Nc2nnc(-c3ccc(C(F)(F)F)cc3C(F)(F)F)c3cccn23)C1", "note": "[Compound I-532]", "IC50": "1 to 10"}, {"compound": "Cc1ccc(-c2nnc(N[C@@H]3CCCN(C)C3)n3cccc23)c(C(F)(F)F)c1", "note": "[Compound I-533]", "IC50": "1 to 10"}, {"compound": "CN1CCC[C@@H](Nc2nnc(-c3ccc(C4CC4)cc3C(F)(F)F)c3cccn23)C1", "note": "[Compound I-534]", "IC50": "< 1"}, {"compound": "CCN1C[C@H](F)C[C@@H](Nc2nnc(-c3ccc(C(F)(F)F)cc3C(F)(F)F)c3cccn23)C1", "note": "[Compound I-535]", "IC50": "1 to 10"}, {"compound": "CC(C)(O)CNc1nnc(-c2ccc(C(F)(F)F)cc2OC(F)F)c2cccn12", "note": "[Compound I-536]", "IC50": "10 to 100"}, {"compound": "C[C@]1(O)C[C@@H](Nc2nnc(-c3ccc(C(F)(F)F)cc3OC(F)F)c3cccn23)C1", "note": "[Compound I-537]", "IC50": "1 to 10"}, {"compound": "CCN1C[C@H](F)C[C@@H](Nc2nnc(-c3ccc(C(F)(F)F)cc3OC(F)F)c3cccn23)C1", "note": "[Compound I-538]", "IC50": "1 to 10"}, {"compound": "Cc1cc(O)c(-c2nnc(NCC(C)(C)O)n3cccc23)c(F)c1", "note": "[Compound I-539]", "IC50": "1 to 10"}, {"compound": "CC(C)(O)CNc1nnc(-c2c(O)cc(C3CC3)cc2F)c2cccn12", "note": "[Compound I-540]", "IC50": "10 to 100"}, {"compound": "CN(C)C1CCC[C@@H](Nc2nnc(-c3c(O)cc(C4CC4)cc3F)c3cccn23)C1", "note": "(some centres unmarked) [Compound I-541]", "IC50": "< 1"}, {"compound": "Cc1ncc2c(-c3ccc(C(F)(F)F)cc3O)nnc(N[C@@H]3CCCN(C)C3)n12", "note": "[Compound I-543, (R)-2-(6-Methyl-4-((1-methylpiperidin-3-yl)amino)imidazo[1,5-d][1,2,4]triazin-1-yl)-5-(trifluoromethyl)phenol]", "IC50": "< 1"}, {"compound": "C[C@]1(O)C[C@@H](Nc2nnc(-c3ccc(Br)cc3O)c3ccnn23)C1", "note": "[Compound I-544]", "IC50": "1 to 10"}, {"compound": "CN1CCC[C@@H](Nc2nnc(-c3ccc(Br)cc3OCc3ccccc3)c3ccnn23)C1", "note": "[Compound I-545]", "IC50": "10 to 100"}, {"compound": "CN1C[C@H](F)C[C@@H](Nc2nnc(-c3ccc(Br)cc3O)c3ccnn23)C1", "note": "[Compound I-546, 5-Bromo-2-(7-(((3R,5R)-5-fluoro-1-methylpiperidin-3-yl)amino)pyrazolo[1,5-d][1,2,4]triazin-4-yl)phenol]", "IC50": "1 to 10"}, {"compound": "Oc1cc(Br)ccc1-c1nnc(N[C@@H]2CCCOC2)n2nccc12", "note": "[Compound I-547]", "IC50": "10 to 100"}, {"compound": "Oc1cc(Br)ccc1-c1nnc(N[C@@H]2CCCN(CC(F)F)C2)n2nccc12", "note": "[Compound I-548]", "IC50": "1 to 10"}, {"compound": "C[C@]1(O)C[C@@H](Nc2nnc(-c3ccc(Cl)cc3O)c3cncn23)C1", "note": "[Compound I-549]", "IC50": "1 to 10"}, {"compound": "COc1cc(O)c(-c2nnc(N[C@@H]3CCCN(C)C3)n3nc(C)cc23)c(F)c1", "note": "[Compound I-551]", "IC50": "< 1"}, {"compound": "CC(CO)N1CCC[C@H](Nc2nnc(-c3ccc(Br)cc3O)c3cccn23)C1", "note": "(some centres unmarked) [Compound I-552]", "IC50": "1 to 10"}, {"compound": "CC(C)N1CCC[C@H](Nc2nnc(-c3ccc(Cl)cc3O)c3cncn23)C1", "note": "[Compound I-553]", "IC50": "< 1"}, {"compound": "CCN1CCC[C@H](Nc2nnc(-c3c(O)cc(C4CC4)cc3F)c3cc(C)nn23)C1", "note": "[Compound I-554]", "IC50": "< 1"}, {"compound": "CCN1CCC[C@@H](Nc2nnc(-c3c(O)cc(OC)cc3F)c3cc(C)nn23)C1", "note": "[Compound I-555]", "IC50": "< 1"}, {"compound": "CCN1CCC[C@@H](Nc2nnc(-c3ccc(C(F)(F)F)cc3OC(F)F)c3cc(C)nn23)C1", "note": "[Compound I-556]", "IC50": "1 to 10"}, {"compound": "CN1C[C@H](F)C[C@@H](Nc2nnc(-c3ccc(Cl)cc3O)c3cncn23)C1", "note": "[Compound I-557]", "IC50": "1 to 10"}, {"compound": "Oc1cc(Cl)ccc1-c1nnc(N[C@@H]2CCCN(CC(F)(F)F)C2)n2cncc12", "note": "[Compound I-558]", "IC50": "1 to 10"}, {"compound": "Oc1cc(Cl)ccc1-c1nnc(N[C@@H]2CCCN(CC(F)F)C2)n2cncc12", "note": "[Compound I-559]", "IC50": "1 to 10"}, {"compound": "Cc1cc2c(-c3c(C)cc(C(F)(F)F)cc3O)nnc(N[C@@H]3CCCN(C)C3)n2n1", "note": "[Compound I-560]", "IC50": "1 to 10"}, {"compound": "Oc1cc(Cl)ccc1-c1nnc(N[C@@H]2CCOC2)n2cncc12", "note": "[Compound I-561]", "IC50": "1 to 10"}, {"compound": "COc1cc(O)c(-c2nnc(N[C@H]3C[C@@](C)(O)C3)n3cccc23)c(F)c1", "note": "[Compound I-562]", "IC50": "1 to 10"}, {"compound": "CCc1cc(O)c(-c2nnc(N[C@@H]3CCCN(C)C3)n3cccc23)c(F)c1", "note": "[Compound I-563]", "IC50": "< 1"}, {"compound": "CCN1CCC[C@@H](Nc2nnc(-c3ccc(Br)cc3O)c3cccn23)C1", "note": "[Compound I-564]", "IC50": "< 1"}, {"compound": "CCN1CCC[C@@H](Nc2nnc(-c3ccc(OC(F)(F)F)cc3OC(F)F)c3cccn23)C1", "note": "[Compound I-565]", "IC50": "1 to 10"}, {"compound": "CCN1CCC[C@@H](Nc2nnc(-c3ccc(C(F)(F)F)cc3OC(F)F)c3c(F)ccn23)C1", "note": "[Compound I-566]", "IC50": "1 to 10"}, {"compound": "CN1CCCC(Cc2nnc(-c3ccc(C(F)(F)F)cc3O)c3ccncc23)C1", "note": "(centres unmarked) [Compound I-567]", "IC50": "10 to 100"}, {"compound": "COC(C)(C)CNc1nnc(-c2ccc(C(F)(F)F)cc2OC(F)F)c2cccn12", "note": "[Compound I-568]", "IC50": "1 to 10"}, {"compound": "Cc1cc(O)c(-c2nnc(N[C@@H]3CCCN(C(C)C)C3)n3cccc23)c(F)c1", "note": "[Compound I-569]", "IC50": "< 1"}, {"compound": "Cc1cc(O)c(-c2nnc(N[C@@H]3CCCN(CC(F)(F)F)C3)n3cccc23)c(F)c1", "note": "[Compound I-570]", "IC50": "1 to 10"}, {"compound": "CCN1C[C@H](F)C[C@@H](Nc2nnc(-c3c(O)cc(C)cc3F)c3cccn23)C1", "note": "[Compound I-571]", "IC50": "< 1"}, {"compound": "C[C@]1(O)C[C@@H](Nc2nnc(-c3ccc(OC(F)F)cc3OC(F)F)c3cccn23)C1", "note": "[Compound I-573]", "IC50": "10 to 100"}]}]}
